The source of these data is patent publication US9913861B2 (priority 2013, dated 2018).

Data set [1] concerns Human coxsackievirus type 9 (CA9). The class given is cell-based.
The subject of data set [2] is Human herpesvirus type 1 (HSV1). Format: cell-based.
Data set [3] has as its system Human respiratory syncytial virus, Long strain (RSV). The class given is cell-based.
Data set [4] concerns Human rhinovirus type 14 (HRV14, major group). The class given is cell-based.
For data set [5] the following is noted: in vivo; cited from earlier work.
The test system of data set [6] is BGM, HEp-2 and HeLa cells.
The subject of data set [7] is herpesviruses and influenza viruses. Conditions: cited from earlier work.

Counter-ions that a name gives are not always drawn.

Take `CN1[C@@H]2CC[C@H]1CC(OC(=O)C(CO)c1ccccc1)C2.CN1[C@@H]2CC[C@H]1CC(OC(=O)C(CO)c1ccccc1)C2.O=S(=O)(O)O` (stereo partly shown) [Atropine sulphate, atropine sulphate]: the percentage plaque inhibition in data set [1] was 7.63/12.85%; in data set [2] it was 19.52/41.90%; in data set [3], 7.74/12.36%; in data set [4] it was 11.30/14.12%. Moreover, in data set [2], the “plaque inhibition of the individual substances” value is “approximately 35%”.
`Nc1nc2c(ncn2COCCO)c(=O)[nH]1` [aciclovir, Aciclovir]: the reduction in infectivity in data set [2] was 50-60%.
As to aconitine, the percentage plaque inhibition in data set [1] was 8.40/10.69%; in data set [2], 3.17/11.22%; in data set [3] it was 9.01/16.56%; in data set [4] it was −1.14/2.84%. The lethal dose result in data set [5] is “approximately 5 mg”. Further, in data set [2], the “plaque inhibition of the individual substances” value was “approximately 8%”. Moreover, the “non-cell-toxic concentration (start of dilution series)” value in data set [6] turned out to be 50 µg/mL.
Regarding `NC(=O)c1ncn([C@@H]2O[C@H](CO)[C@@H](O)[C@H]2O)n1` [ribavirin, Ribavirin], the reduction in infectivity in data set [3] is recorded as 50-60%.
Consider `Cc1cc(C(C)(C)C)c(O)c(C)c1CC1=NCCN1` [OMZ, Oxymetazoline hydrochloride], for which, in data set [4], the reduction in infectivity is reported as 50-60%.
On to `CN1[C@@H]2CC[C@H]1C[C@@H](OC(=O)C(CO)c1ccccc1)C2` (stereo partly shown) [atropine], for which the “concentration at which the maximum antiviral effect is achieved” value in data set [7] is reported as 2 mM.
